Measured values taken from patent US10294202B2, “Pyrrolidinones as herbicides” (FMC Corporation, priority 2013, dated 2019).

How the values were obtained:
pigweed = assay: Test A pre-/postemergence herbicide test; type: in vivo, Amaranthus retroflexus
In short: (§1)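 Seeds sown in loam soil/sand blend received a preemergence directed soil spray of test chemical in non-phytotoxic solvent with surfactant; postemergence plants (2–10 cm, one- to two-leaf stage) were sprayed with the same formulation. After about 10 days in greenhouse, injury was rated visually versus untreated controls, 0 (no effect) to 100 (complete control).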

corn = assay: Test A pre-/postemergence herbicide test; type: in vivo, Zea mays
In short: as §1

giant foxtail = assay: Test A pre-/postemergence herbicide test; type: in vivo, Setaria faberii
In short: as §1

morningglory = assay: Test A pre-/postemergence herbicide test; type: in vivo, Ipomoea spp.
In short: as §1

rice = assay: Test B flooded paddy test; type: in vivo, Oryza sativa; details: Flood, scale of 0 to 100 where 0 is no effect and 100 is complete control
In short: (§2)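 Plants were grown to the 2-leaf stage, then pots were flooded to 3 cm above the soil and compound was applied directly into the paddy water, with that depth held throughout. After 13 to 15 days in a greenhouse, injury was rated visually against untreated controls on a 0 to 100 scale (100 = complete control).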

sedge, umbrella = assay: Test B flooded paddy test; type: in vivo, Cyperus difformis; details: Flood, scale of 0 to 100 where 0 is no effect and 100 is complete control
In short: as §2

crabgrass, large = assay: Test A pre-/postemergence herbicide test; type: in vivo, Digitaria sanguinalis
In short: as §1

ducksalad = assay: Test B flooded paddy test; type: in vivo, Heteranthera limosa; details: Flood, scale of 0 to 100 where 0 is no effect and 100 is complete control
In short: as §2

barnyardgrass [1] = assay: Test B flooded paddy test; type: in vivo, Echinochloa crus-galli; details: Flood, scale of 0 to 100 where 0 is no effect and 100 is complete control
In short: as §2

barnyardgrass [2] = assay: Test A pre-/postemergence herbicide test; type: in vivo, Echinochloa crus-galli
In short: as §1

velvetleaf = assay: Test A pre-/postemergence herbicide test; type: in vivo, Abutilon theophrasti
In short: as §1

wheat = assay: Test A pre-/postemergence herbicide test; type: in vivo, Triticum aestivum
In short: as §1

[3] = Postemergence, 125 g ai/ha, 0 to 100 scale, 0 no effect, 100 complete control
[4] = Postemergence, 500 g ai/ha, 0 to 100 scale (0 no effect, 100 complete control)
[5] = Preemergence, 125 g ai/ha, visual rating on 0 to 100 scale (0 no effect, 100 complete control)
[6] = preemergence, 500 g ai/ha, 0 to 100 scale
[7] = Postemergence, 1000 g ai/ha, 0 to 100 scale (0 no effect, 100 complete control)
[8] = Preemergence, 1000 g ai/ha, visual rating on 0 to 100 scale (0 no effect, 100 complete control), approx. 10 days
[9] = preemergence, 1000 g ai/ha, 0 to 100 scale

O=C1NCC(c2ccc(F)c(F)c2)C1C(=O)Nc1cccc[n+]1[O-] (centres unmarked) [Compound 47]
Plant response rating, Pigweed (pigweed; [3]): 0 | Plant response rating, Pigweed (pigweed; [4]): 0 | Pigweed plant response rating (pigweed; [5]): 0 | Plant response rating, Pigweed (pigweed; [6]): 0 | Corn plant response rating (corn; [5]): 0 | Plant response rating, Corn (corn; [6]): 0 | Plant response rating, Foxtail, Giant (giant foxtail; [3]): 0 | Plant response rating, Foxtail, Giant (giant foxtail; [4]): 0 | Foxtail, Giant plant response rating (giant foxtail; [5]): 0 | Plant response rating, Foxtail, Giant (giant foxtail; [6]): 0 | Plant response rating, Morningglory (morningglory; [3]): 0 | Plant response rating, Morningglory (morningglory; [4]): 20 | Morningglory plant response rating (morningglory; [5]): 0 | Plant response rating, Morningglory (morningglory; [6]): 0 | Plant response rating, Rice (rice; 250 g ai/ha): 0 | Plant response rating, Sedge, Umbrella (sedge, umbrella; 250 g ai/ha): 0 | Plant response rating, Crabgrass, Large (crabgrass, large; [3]): 0 | Plant response rating, Crabgrass, Large (crabgrass, large; [4]): 0 | Crabgrass, Large plant response rating (crabgrass, large; [5]): 10 | Plant response rating, Crabgrass, Large (crabgrass, large; [6]): 60 | Plant response rating, Ducksalad (ducksalad; 250 g ai/ha): 0 | Plant response rating, Barnyardgrass (barnyardgrass [1]; 250 g ai/ha): 0 | Plant response rating, Barnyardgrass (barnyardgrass [2]; [3]): 0 | Plant response rating, Barnyardgrass (barnyardgrass [2]; [4]): 0 | Barnyardgrass plant response rating (barnyardgrass [2]; [5]): 0 | Plant response rating, Barnyardgrass (barnyardgrass [2]; preemergence, 500 g ai/ha, 0 to 100 scale (0 no effect, 100 complete control)): 0 | Plant response rating, Velvetleaf (velvetleaf; [3]): 0 | Plant response rating, Velvetleaf (velvetleaf; [4]): 0 | Velvetleaf plant response rating (velvetleaf; [5]): 0 | Plant response rating, Velvetleaf (velvetleaf; [6]): 0 | Plant response rating, Wheat (wheat; [3]): 0 | Plant response rating, Wheat (wheat; [4]): 0 | Wheat plant response rating (wheat; [5]): 0 | Plant response rating, Wheat (wheat; [6]): 0

Cc1ccccc1NC(=O)C1C(=O)NCC1c1ccc(Cl)c(Cl)c1 (centres unmarked) [Compound 40]
Plant response rating, Pigweed (pigweed; [7]): 0 | Plant response rating, Pigweed (pigweed; [8]): 0 | Plant response rating, Corn (corn; [7]): 20 | Plant response rating, Corn (corn; [8]): 30 | Plant response rating, Foxtail, Giant (giant foxtail; [7]): 90 | Plant response rating, Foxtail, Giant (giant foxtail; [8]): 90 | Plant response rating, Morningglory (morningglory; [7]): 10 | Plant response rating, Morningglory (morningglory; [8]): 0 | Plant response rating, Rice (rice; 250 g ai/ha): 0 | Plant response rating, Sedge, Umbrella (sedge, umbrella; 250 g ai/ha): 0 | Plant response rating, Crabgrass, Large (crabgrass, large; [7]): 90 | Plant response rating, Crabgrass, Large (crabgrass, large; [8]): 90 | Plant response rating, Ducksalad (ducksalad; 250 g ai/ha): 0 | Plant response rating, Barnyardgrass (barnyardgrass [1]; 250 g ai/ha): 0 | Plant response rating, Barnyardgrass (barnyardgrass [2]; [7]): 80 | Plant response rating, Barnyardgrass (barnyardgrass [2]; [8]): 90 | Plant response rating, Velvetleaf (velvetleaf; [7]): 0 | Plant response rating, Velvetleaf (velvetleaf; [8]): 0 | Plant response rating, Wheat (wheat; [7]): 20 | Plant response rating, Wheat (wheat; [8]): 20

O=C1NCC(c2ccc(F)c(F)c2)C1C(=O)Nc1cccc(F)c1Cl (racemic) [Compound 108]
Plant response rating, Pigweed (pigweed; [7]): 0 | Plant response rating, Pigweed (pigweed; [9]): 0 | Plant response rating, Corn (corn; [7]): 0 | Plant response rating, Corn (corn; [9]): 0 | Plant response rating, Foxtail, Giant (giant foxtail; [7]): 80 | Plant response rating, Foxtail, Giant (giant foxtail; [9]): 90 | Plant response rating, Morningglory (morningglory; [7]): 10 | Plant response rating, Morningglory (morningglory; [9]): 0 | Plant response rating, Rice (rice; 1000 g ai/ha): 0 | Plant response rating, Sedge, Umbrella (sedge, umbrella; 1000 g ai/ha): 0 | Plant response rating, Crabgrass, Large (crabgrass, large; [7]): 90 | Plant response rating, Crabgrass, Large (crabgrass, large; [9]): 90 | Plant response rating, Ducksalad (ducksalad; 1000 g ai/ha): 95 | Plant response rating, Barnyardgrass (barnyardgrass [1]; 1000 g ai/ha): 50 | Plant response rating, Barnyardgrass (barnyardgrass [2]; [7]): 90 | Plant response rating, Barnyardgrass (barnyardgrass [2]; preemergence, 1000 g ai/ha, 0 to 100 scale (0 no effect, 100 complete control)): 90 | Plant response rating, Velvetleaf (velvetleaf; [7]): 10 | Plant response rating, Velvetleaf (velvetleaf; [9]): 0 | Plant response rating, Wheat (wheat; [7]): 0 | Plant response rating, Wheat (wheat; [9]): 0
